In patent publication US4524059A, “Fatty acid analogs” (The General Hospital Corporation, priority 1983, dated 1985):
Read-outs that look alike come from different tables or passages of the source. Each block holds one compound with its values, some of them ahead of it.

Columns and labels:
Biodistribution in mice = format: in vivo
[1] = Sequential positron tomography imaging of the heart in a mongrel dog, 201Tl as control; format: in vivo
Experimental: Solutions of [^131 I]-BMPTA and, as a control, ^201 T1, are injected sequentially in a mongrel dog. After each injection, sequential images of the dog's heart are obtained using positron tomography.

[2] = Myocardial kinetics by positron tomography in adult, fasted, human volunteers; format: in vivo; conditions: 1-5 mCi intravenously
Experimental: (§1) The myocardial kinetics of BMHDA are evaluated in adult, fasted, human volunteers by positron tomography. Following attenuation measurements, volunteers receive between 1-5 mCi [^11 C] BMHDA intravenously and serial images are recorded for 30 min. No changes in heart rate, blood pressure, ECG, or respiratory rate are observed.

[3] = dog, in vivo
[4] = Imaging study of a canine heart one hour post-LAD ligation; format: in vivo; conditions: dog
Text: In addition to its long retention time, [^11 C] […] An imaging study of a canine heart following [^11 C]

[5] = Heart rate, blood pressure, ECG and respiratory rate in human volunteers receiving the tracer; format: in vivo; conditions: 1-5 mCi intravenously
Experimental: as §1

[6] = Tissue distribution study in CD Fischer rats (organ radioactivity, NaI well scintillation counter); format: in vivo; conditions: rat
Experimental: CD Fischer rats (175-225 g) are anesthetized with ether and 0.2 ml ([…]) of [^11 C] BMHDA is injected through the femoral vein. The rats are sacrificed by ether asphyxiation at 5, 15, 30, and 60 minutes after dosing. The appropriate organs are excised and radioactivity measured in a NaI (T1) well scintillation counter.

[7] = Biodistribution and positron tomography imaging of the heart and liver in mongrel dogs; conditions: dog, images 3, 13 and 48 minutes after injection, [^11 C] BMHDA versus [^11 C] HDA
[8] = throughout the monitoring period

SMILES: CC(CCCCCCCCCCCc1ccc([131I])cc1)CC(=O)O (stereo not drawn) [[^131 I]-BMPTA, Beta-methyl-omega-(p-[^131 I]iodophenyl) tetradecanoic acid]
- time of peak uptake by the kidney (Biodistribution in mice): 15 min
- uptake in the heart (Biodistribution in mice; 5 minutes after injection): high levels of uptake
- uptake in the liver (Biodistribution in mice; 5 minutes after injection): high levels of uptake
- uptake by the kidney after the peak (Biodistribution in mice; 30 minutes after injection): declining slightly
- maintenance of radioactivity in heart and liver (Biodistribution in mice; over the 30 minutes of the experiment): high levels of radioactivity generally being maintained
- radioactivity in blood (Biodistribution in mice; [8]): lower throughout the monitoring period
- radioactivity in skeletal muscle (Biodistribution in mice; [8]): lower throughout the monitoring period
- radioactivity in the lungs (Biodistribution in mice; [8]): lower throughout the monitoring period
- retention by the heart muscle compared to ^201 T1 [1]: longer retention
- time after injection over which clear images of the heart are obtained [1]: as long as two hours after the injection
- activity in the heart over the initial 60 minute period ([1]; 60 minutes): remains essentially the same

- time in which myocardial activity approaches a constant level [2]: ≤ 3 min
- region of highest regional uptake in the myocardium [3]: left ventricle
- wash-out from / retention in the myocardium [3]: much higher retention in the myocardium
- uptake in normal areas of the heart [4]: very high uptake
- uptake in the apex, the region in which the infarct is located [4]: much lower uptake
- uptake pattern [4]: desirably selective uptake pattern
- retention of radioactivity in the heart ([6]; i.v. (femoral vein), 5-60 min): retained in the heart for up to one hour
- liver activity ([6]; i.v., 5-60 min): increases during the course of the study
- lung activity ([6]; i.v., compared with heart activity): at all times lower than heart activity
SMILES: CCCCCCCCCCCCCCC(C)C[11C](=O)O (stereo not drawn) [[^11 C] BMHDA, [1-^11 C] beta-methylheptadecanoic acid]
- myocardial activity for the remainder of the observation ([2]; serial images for 30 min): constant for the remainder of the observation
- radioactivity in the myocardium over time [3]: remains constant throughout the experiment (60 minutes)
- ECG [5]: No changes
- blood pressure [5]: No changes
- heart rate [5]: No changes
- respiratory rate [5]: No changes
- extraction by the heart muscle ([6]; i.v. (femoral vein), 5-60 min): selectively extracted by the heart muscle

SMILES: CCCCCCCCCCCCCCCCC(=O)O [[^11 C] HDA, [^11 C] heptadecanoic acid]
- wash-out from / retention in the myocardium [7]: rapidly washes out of the tissue
